Test results reported in PubChem BioAssay AID256 (DTP/NCI, 2004).
Toxic doses and inconclusive results are not listed.

System: CD2F1 mice, L1210 leukemia ip, survival T/C
Experiment: NCI In Vivo Anticancer Drug Screen. Data for tumor model L1210 Leukemia (intraperitoneal) in CD2F1 (CDF1) mice
Conditions: higher = longer survival
Summary of the method: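 Ratio T/C, where T is the treated-group value and C the vehicle-dosed control value, from mice implanted with a transplantable tumor.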

SMILES: COc1cc([C@@H]2c3cc4c(cc3[C@@H](OC3OC5COC(C)OC5C(O)C3O)[C@H]3COC(=O)[C@H]23)OCO4)cc(OC)c1O (stereo partly drawn)
- T/C (endpoint: mean survival time, dose: 0.5 mg/kg/injection, schedule: Q03HX024 (ip), vehicle: saline): 165 % of control
- T/C (endpoint: mean survival time, dose: 1.0 mg/kg/injection, schedule: Q03HX024 (ip), vehicle: saline): 360 % of control
- T/C (endpoint: mean survival time, dose: 2.0 mg/kg/injection, schedule: Q01DX009 (ip), vehicle: saline): 151 % of control
- T/C (endpoint: mean survival time, dose: 2.0 mg/kg/injection, schedule: Q03HX024 (ip), vehicle: saline): 124 % of control
- T/C (endpoint: mean survival time, dose: 4.0 mg/kg/injection, schedule: Q01DX009 (ip), vehicle: saline): 246 % of control
- T/C (endpoint: mean survival time, dose: 8.0 mg/kg/injection, schedule: Q01DX009 (ip), vehicle: saline): 111 % of control
- T/C (endpoint: mean survival time, dose: 8.0 mg/kg/injection, schedule: Q04DX003 (ip), vehicle: saline): 181 % of control
- T/C (endpoint: mean survival time, dose: 16.0 mg/kg/injection, schedule: Q01DX009 (ip), vehicle: saline): 87 % of control
- T/C (endpoint: mean survival time, dose: 16.0 mg/kg/injection, schedule: Q04DX003 (ip), vehicle: saline): 289 % of control
- T/C (endpoint: mean survival time, dose: 32.0 mg/kg/injection, schedule: Q04DX003 (ip), vehicle: saline): 542 % of control
- T/C (endpoint: median survival time, dose: 1.0 mg/kg/injection, schedule: Q03HX008 (ip), vehicle: other): 162 % of control
- T/C (endpoint: median survival time, dose: 1.0 mg/kg/injection, schedule: Q03HX016 (ip), vehicle: other): 175 % of control
- T/C (endpoint: median survival time, dose: 1.0 mg/kg/injection, schedule: Q03HX024 (ip), vehicle: other): 218 % of control
- T/C (endpoint: median survival time, dose: 2.0 mg/kg/injection, schedule: Q01DX009 (ip), vehicle: other): 175 % of control
- T/C (endpoint: median survival time, dose: 2.0 mg/kg/injection, schedule: Q01DX009 (ip), vehicle: saline): 152 % of control
- T/C (endpoint: median survival time, dose: 2.0 mg/kg/injection, schedule: Q01DX009 (sc), vehicle: other): 150 % of control
- T/C (endpoint: median survival time, dose: 2.0 mg/kg/injection, schedule: Q03HX008 (ip), vehicle: other): 175 % of control
- T/C (endpoint: median survival time, dose: 2.0 mg/kg/injection, schedule: Q03HX016 (ip), vehicle: other): 212 % of control
- T/C (endpoint: median survival time, dose: 2.0 mg/kg/injection, schedule: Q03HX024 (ip), vehicle: other): 206 % of control
- T/C (endpoint: median survival time, dose: 4.0 mg/kg/injection, schedule: Q01DX009 (ip), vehicle: other): 218 % of control
- T/C (endpoint: median survival time, dose: 4.0 mg/kg/injection, schedule: Q01DX009 (ip), vehicle: saline): 195 % of control
- T/C (endpoint: median survival time, dose: 4.0 mg/kg/injection, schedule: Q01DX009 (oral), vehicle: Klucel (hydroxypropylcellulose) (HPC)): 105 % of control
- T/C (endpoint: median survival time, dose: 4.0 mg/kg/injection, schedule: Q01DX009 (sc), vehicle: other): 168 % of control
- T/C (endpoint: median survival time, dose: 4.0 mg/kg/injection, schedule: Q03HX008 (ip), vehicle: other): 181 % of control
- T/C (endpoint: median survival time, dose: 4.0 mg/kg/injection, schedule: Q03HX008 (oral), vehicle: Klucel (hydroxypropylcellulose) (HPC)): 111 % of control
- T/C (endpoint: median survival time, dose: 4.0 mg/kg/injection, schedule: Q03HX016 (ip), vehicle: other): 187 % of control
- T/C (endpoint: median survival time, dose: 4.0 mg/kg/injection, schedule: Q03HX016 (oral), vehicle: Klucel (hydroxypropylcellulose) (HPC)): 100 % of control
- T/C (endpoint: median survival time, dose: 4.0 mg/kg/injection, schedule: Q03HX024 (ip), vehicle: other): 118 % of control
- T/C (endpoint: median survival time, dose: 4.0 mg/kg/injection, schedule: Q03HX024 (oral), vehicle: Klucel (hydroxypropylcellulose) (HPC)): 88 % of control
- T/C (endpoint: median survival time, dose: 8.0 mg/kg/injection, schedule: Q01DX001 (ip), vehicle: other): 162 % of control
- T/C (endpoint: median survival time, dose: 8.0 mg/kg/injection, schedule: Q01DX001 (sc), vehicle: other): 112 % of control
- T/C (endpoint: median survival time, dose: 8.0 mg/kg/injection, schedule: Q01DX009 (ip), vehicle: saline): 220 % of control
- T/C (endpoint: median survival time, dose: 8.0 mg/kg/injection, schedule: Q01DX009 (oral), vehicle: Klucel (hydroxypropylcellulose) (HPC)): 116 % of control
- T/C (endpoint: median survival time, dose: 8.0 mg/kg/injection, schedule: Q01DX009 (sc), vehicle: other): 118 % of control
- T/C (endpoint: median survival time, dose: 8.0 mg/kg/injection, schedule: Q03HX008 (ip), vehicle: other): 87 % of control
- T/C (endpoint: median survival time, dose: 8.0 mg/kg/injection, schedule: Q03HX008 (oral), vehicle: Klucel (hydroxypropylcellulose) (HPC)): 122 % of control
- T/C (endpoint: median survival time, dose: 8.0 mg/kg/injection, schedule: Q03HX016 (oral), vehicle: Klucel (hydroxypropylcellulose) (HPC)): 100 % of control
- T/C (endpoint: median survival time, dose: 8.0 mg/kg/injection, schedule: Q03HX024 (ip), vehicle: other): 112 % of control
- T/C (endpoint: median survival time, dose: 8.0 mg/kg/injection, schedule: Q03HX024 (oral), vehicle: Klucel (hydroxypropylcellulose) (HPC)): 88 % of control
- T/C (endpoint: median survival time, dose: 8.0 mg/kg/injection, schedule: Q04DX003 (ip), vehicle: other): 193 % of control
- T/C (endpoint: median survival time, dose: 8.0 mg/kg/injection, schedule: Q08DX002 (ip), vehicle: other): 168 % of control
- T/C (endpoint: median survival time, dose: 16.0 mg/kg/injection, schedule: Q01DX001 (ip), vehicle: other): 162 % of control
- T/C (endpoint: median survival time, dose: 16.0 mg/kg/injection, schedule: Q01DX009 (ip), vehicle: other): 100 % of control
- T/C (endpoint: median survival time, dose: 16.0 mg/kg/injection, schedule: Q01DX009 (oral), vehicle: Klucel (hydroxypropylcellulose) (HPC)): 122 % of control
- T/C (endpoint: median survival time, dose: 16.0 mg/kg/injection, schedule: Q01DX009 (sc), vehicle: other): 93 % of control
- T/C (endpoint: median survival time, dose: 16.0 mg/kg/injection, schedule: Q03HX008 (oral), vehicle: Klucel (hydroxypropylcellulose) (HPC)): 111 % of control
- T/C (endpoint: median survival time, dose: 16.0 mg/kg/injection, schedule: Q03HX016 (oral), vehicle: Klucel (hydroxypropylcellulose) (HPC)): 111 % of control
- T/C (endpoint: median survival time, dose: 16.0 mg/kg/injection, schedule: Q03HX024 (oral), vehicle: Klucel (hydroxypropylcellulose) (HPC)): 94 % of control
